In patent US8470594B2, “Methods for identifying agents that affect the survival of motor neurons” (President and Fellows of Harvard College, priority 2008, dated 2013):

Tested on: Hb9::GFP human ES cell-derived motor neurons
Assay: Survival of Hb9::GFP human ES cell-derived motor neurons in co-culture with non-transgenic (WT) glia
Type: cell-based
Conditions: non-transgenic (WT) mouse glia pretreated 1 day, 20 days of treatment; MCP2, Cxc17, Rantes 100 ng/ml; GMFb 250 ng/ml; PGD2 10 μM; Shh agonist 11M [sic]; n=3
Procedure: (§1) Differentiation of human Embryonic Stem Cells into motor neurons. For differentiation into motor neurons, the cells were allowed to reach 80-90% confluency, washed once with PBS, and then incubated for 15 minutes at 37° C. in a solution of 1 g/L Collagenase IV (GIBCO) in DMEM-F12 (GIBCO).
After 24 hours, the cells had aggregated to form embryoid bodies (EBs), and the media was changed to remove debris by centrifuging the EBs and resuspending in fresh in human ES cell media without bFGF2 or plasmanate in low attachment 6-well plates. EBs were cultured as such for 13 more days, with half of the media changed every two days, and a complete media change every week. After 14 days, the EBs were induced toward a caudal and ventral identity using retinoic acid (1 μM, Sigma) and an agonist of the Shh signaling pathway (1 μM) in N2 media: 1:1 DMEM:F-12+Glutamate (Gibco), 10,000 units Penicillin and 1 mg/mL Streptomicin (Gibco), 1% N2 Supplement (Gibco), 0.2 mM ascorbic acid (Sigma-Aldrich), 0.16% D-(+)-Glucose (Sigma-Aldrich), BDNF (10 ng/ml, R&D Systems), for another 14 days. The EBs were then matured for a final 14 days in N2 media with GNDF (10 ng/mL, R&D Systems). After 42 days of differentiation, the EBs were dissociated. To dissociate the EBs, they were centrifuged at 1000 rpm for 5 min in a 15 ml falcon tube, and then washed once with PBS to eliminate residual media. The EBs were then incubated for 60 minutes at 37° C. in Earle's Balanced Salt Solution with 20 units of papain and 1000 units of Deoxyribonuclease I (Worthington Biochemical Corporation). EBs were triturated using a 2 mL serological pipette every 15-20 minutes during this incubation. When an almost single cell suspension was achieved, the cells were centrifuged for 5 minutes at 1000 RPM. The resulting cell pellet was washed once with PBS and then resuspended in N2 media with neurotrophic factors (GDNF, and BDNF (10 ng/ml, R&D Systems)). These cells were then counted and plated on Poly-D-Lysine/Laminin CultureSlides (BD biosciences) or on a layer of primary glial cells. Depending on the experiment, motor neurons or interneurons were counted 10 or 20 days after plating.
Primary Glial Cultures. P1-P3 mouse pups transgenic for SOD1G93A, SOD1WT or non-transgenic pups were sacrificed by using an approved method of euthanasia. Under a dissection microscope, the parenquima were isolated and the meninges were carefully stripped away with fine forceps. The tissue was then dissected into small pieces and transferred to a solution containing 12 ml of HBSS, 1.5 ml of trypsin (GIBCO) and 1% DNAse (Sigma) and incubated at 37° C. for 15 min, swirling the mixture periodically. The supernatant containing the dissociated cells was then collected and 3 ml of serum was added to inhibit trypsin activity.
The cells were then centrifuged at 1000 rpm for 5 min, resuspended in Glia medium: (Minimun Essential Medium with Earl's salts (GIBCO), D-(+)-Glucose 20% (Sigma), Penicillin-streptomycin (GIBCO), 10% Horse Serum (GIBCO)) and plated at the concentration of 80,000 cells per mL in T75 flasks (Falcon). After the glia reached confluency, they were replated onto Poly-D-Lysine/Laminin CultureSlides (BD biosciences).
Non-transgenic glia were individually pretreated for 1 day with either one of the three cytokines MCP2, Cxc17, or Rantes; with GMFb; an agonist of SHH pathway; or with PGD2.

Row | Molecule | number of GFP positive motor neurons compared to the control condition
1 | CNC1CCC(N(Cc2cccc(-c3ccncc3)c2)C(=O)c2sc3ccccc3c2Cl)CC1 (stereo not drawn) [SHH agonist] | 97%+/−12%
2 | Rantes | 108%+/−20%
3 | CCCCC[C@H](O)/C=C/[C@H]1C(=O)C[C@H](O)[C@@H]1C/C=C\CCCC(=O)O [PGD2, prostaglandin D2] | 19%+/−2%
4 | Mcp2: cytokine over expressed in mutant glia; from Peprotech (protein, UniProt Q9Z121 24-97, looked up) C-C motif chemokine 8: GPDKAPVTCCFHVLKLKIPLRVLKSYERINNIQCPMEAVVFQTKQGMSLCVDPTQKWVSEYMEILDQKSQILQP | 103%+/−8%
5 | GMFb: glial maturation factor beta, shown to induce a pro-inflammatory state in astrocytes; from Peprotech (protein, UniProt Q9CQI3 2-142, looked up) Glia maturation factor beta: SESLVVCDVAEDLVEKLRKFRFRKETHNAAIIMKIDKDERLVVLDEELEGVSPDELKDELPERQPRFIVYSYKYQHDDGRVSYPLCFIFSSPVGCKPEQQMMYAGSKNKLVQTAELTKVFEIRNTEDLTEEWLREKLGFFH | 95%+/−9%

Tested on: Hb9::GFP human ES cell-derived motor neurons
Assay: not given
Conditions: SOD1G93A glia pretreated 1 day, MK 0524 10 μM, 20 days; p<0.05; n=3
Procedure: as §1
After 24 hours, the cells had aggregated to form embryoid bodies (EBs), and the media was changed to remove debris by centrifuging the EBs and resuspending in fresh in human ES cell media without bFGF2 or plasmanate in low attachment 6-well plates. EBs were cultured as such for 13 more days, with half of the media changed every two days, and a complete media change every week. After 14 days, the EBs were induced toward a caudal and ventral identity using retinoic acid (1 μM, Sigma) and an agonist of the Shh signaling pathway (1 μM) in N2 media: 1:1 DMEM:F-12+Glutamate (Gibco), 10,000 units Penicillin and 1 mg/mL Streptomicin (Gibco), 1% N2 Supplement (Gibco), 0.2 mM ascorbic acid (Sigma-Aldrich), 0.16% D-(+)-Glucose (Sigma-Aldrich), BDNF (10 ng/ml, R&D Systems), for another 14 days. […] These cells were then counted and plated on Poly-D-Lysine/Laminin CultureSlides (BD biosciences) or on a layer of primary glial cells. Depending on the experiment, motor neurons or interneurons were counted 10 or 20 days after plating. […]

Row | Molecule | increase in the number of GFP positive neurons relative to untreated neurons plated on the same glia
6 | CS(=O)(=O)c1cc(F)cc2c3c(n(Cc4ccc(Cl)cc4)c12)[C@@H](CC(=O)O)CC3 [MK 0524] | 32%
